Reference: patent US12514862B2, “Testosterone containing pharmaceutical composition” (Diurnal Limited, priority 2020, dated 2026)

Legend:
[1] = DITEST-001 single dose cross-over study: serum total testosterone pharmacokinetics; assay type: in vivo, human; settings: DITEST both doses fed and 200 mg fasted; testosterone undecanoate fed; hypogonadal men
Description: (§1) The study was conducted in male participants from 18 to 80 years of age requiring testosterone replacement therapy for primary or secondary hypogonadism. The study was a randomized, active control, single dose, 2-way cross-over study in 2 cohorts. In each cohort participants who met the entry criteria at screening and baseline were randomized to one of 2 sequences:
(§2) Cohort 1: single dose of 120 mg (3×40 mg) DITEST followed by a single dose of 80 mg (2×40 mg) testosterone undecanoate or a single dose of 80 mg (2×40 mg) testosterone undecanoate followed by a single dose of 120 mg (3×40 mg) DITEST. The 2 treatments were separated by a minimum of a 7-day washout period, with both treatments given in the fed state.
(§3) Cohort 2: single dose of 200 mg (5×40 mg) DITEST (fed) followed by a single dose of 200 mg DITEST (fasted) or a single dose of 200 mg DITEST (fasted) followed by a single dose of 200 mg (5×40 mg) DITEST (fed). The 2 treatments were separated by a minimum of a 7-day washout period.
(§4) Twelve participants were to be recruited into each cohort (note: participants from Cohort 1 could be entered into Cohort 2 after a washout period of at least 3 months between cohorts). Participants were not recruited into Cohort 2 until the results of participants treated in Cohort 1 had been evaluated (this review determined if the intended dose for Cohort 2 needed to be adjusted). […]

[2] = DITEST-001 study: safety (TEAEs, SAEs, ECG, vital signs); assay type: in vivo, human
Description: as §1, §2, §3
Twelve participants were to be recruited into each cohort (note: participants from Cohort 1 could be entered into Cohort 2 after a washout period of at least 3 months between cohorts). Participants were not recruited into Cohort 2 until the results of participants treated in Cohort 1 had been evaluated (this review determined if the intended dose for Cohort 2 needed to be adjusted). No other testosterone treatments were allowed for the duration of each cohort (including the washout periods) (note: participants who entered Cohort 1 were able to revert to their usual testosterone treatment, if applicable, on completion of this cohort and prior to screening for Cohort 2, if applicable). Each participant was required to attend the study site for a minimum of either 4 or 5 visits per cohort: a screening assessment, an evaluation of baseline testosterone levels after the washout period from the participant's current medication (only for participants currently on testosterone replacement therapy), both dosing days, and a follow-up visit at the end of the study. On each dosing day, participants were to remain in the study site and PK blood and saliva samples were taken at −0.5, −0.25 (Cohort 1 only), 0, 0.5, 1, 1.5, 2, 2.5, 3, 3.5, 4, 4.5, 5, 5.5, 6, 7, 8, and 10 hours. Further PK blood and saliva samples could be taken at up to 2 additional timepoints per period if deemed necessary based on emerging data. […] If necessary, for practical reasons, participants could stay overnight at the study site or at a nearby hotel the night before and/or the night after the dosing days.
• Testosterone serum concentrations after administration of a single dose of 120 mg or 200 mg DITEST and 80 mg testosterone undecanoate in the fed state, as measured by the primary PK parameters of maximum serum concentration (Cmax) and the area under the curve from 0 to 10 hours (AUC0-10). Secondary Endpoints • Testosterone serum concentrations after administration of a single 200 mg dose of DITEST in the fed and fasted states, as measured by the primary PK parameters of Cmax and AUC0-10. • AEs observed throughout the study. • Changes during the study in vital signs, ECG and safety laboratory data. Exploratory Endpoints: • To assess the levels of testosterone and DHT in serum. • To assess the levels of testosterone and testosterone undecanoate in the lipid and aqueous fractions of blood (testosterone undecanoate only measured in participants in the testosterone undecanoate arm). • To assess the levels of intact testosterone undecanoate in serum for participants who received testosterone undecanoate. • To compare testosterone concentrations in venous and capillary blood samples collected using the Mitra microsampling device with serum concentrations. • To compare the concentrations of testosterone in saliva with serum concentrations. • To evaluate the concentrations of androstenedione in saliva Statistical Methods […]

[3] = DITEST-001 study: serum testosterone undecanoate and aqueous/lipid fractions of serum; assay type: in vivo, human
Description: There is an unmet need for a native oral testosterone therapy for men with androgen (testosterone) deficiency. Current therapy for most hypogonadal patients in Europe and the United States of America (USA) is with either intramuscular injections or gels. These therapies have the disadvantages of pain with injections, skin reactions, and potential spread to partners with gels. At the time this study was designed, there was only one oral formulation of testosterone undecanoate on the market in the UK, but at that time this was not approved in the USA. DITEST is a novel formulation of native testosterone. […] Testosterone undecanoate is considered mainly absorbed through intestinal lymphatics, along with dietary lipids, whilst DITEST was formulated to permit absorption without the requirement for dietary lipids. To examine the proportions absorbed through lymphatics, the aqueous and lipid fractions of serum were separated for the measurement of serum testosterone. Since this was a first-in-human study, participants were closely monitored as inpatients during dosing. […]
as §4
• Testosterone serum concentrations after administration of a single dose of 120 mg or 200 mg DITEST and 80 mg testosterone undecanoate in the fed state, as measured by the primary PK parameters of maximum serum concentration (Cmax) and the area under the curve from 0 to 10 hours (AUC0-10). Secondary Endpoints • Testosterone serum concentrations after administration of a single 200 mg dose of DITEST in the fed and fasted states, as measured by the primary PK parameters of Cmax and AUC0-10. • AEs observed throughout the study. • Changes during the study in vital signs, ECG and safety laboratory data. […]

[4] = cited from earlier work

CCCCCCCCCCC(=O)O[C@H]1CC[C@H]2[C@@H]3CCC4=CC(=O)CC[C@]4(C)[C@H]3CC[C@]12C [Testosterone Undecanoate, testosterone undecanoate]
Serum testosterone levels following dosing [1]: within the physiological range
QT prolongation, reported as related to study intervention ([2]; Cohort 1: testosterone undecanoate 80 mg and DITEST 120 mg): One participant had QT prolongation
Total number of TEAEs reported ([2]; DITEST 120 mg fed, 200 mg fed and 200 mg fasted, testosterone undecanoate 80 mg fed): 8
Mean change in diastolic blood pressure ([2]; single doses): 1.5 mmHg
Mean change in heart rate ([2]; single doses): 8.5 bpm
Mean change in systolic blood pressure ([2]; single doses): 12.8 mmHg
SAEs or severe AEs ([2]; single doses): One SAE
Lipid fraction of serum testosterone undecanoate as part of total serum measurement of testosterone undecanoate ([3]; after 80 mg testosterone undecanoate): over half
Serum testosterone undecanoate levels relative to the testosterone levels ([3]; after dosing with 80 mg testosterone undecanoate): 10 fold
Lipid fraction of testosterone relative to the serum concentration ([3]; single oral dose): approximately 1/10

C[C@]12CC[C@H]3[C@@H](CCC4=CC(=O)CC[C@@]43C)[C@@H]1CC[C@@H]2O [Testosterone, (8R,9S,10R,13S,14S,17S)-17-hydroxy-10,13-dimethyl-1,2,6,7,8,9,11,12,14,15,16,17-dodecahydrocyclopent a[a]phenanthren-3-one]
Non-aqueous Solubility, Alcohol ([4]; (wt/vol) at 20° C.): 1 in 5 parts
Non-aqueous Solubility, Chloroform ([4]; (wt/vol) at 20° C.): 1 in 2 parts
Non-aqueous Solubility, Dehydrated alcohol ([4]; (wt/vol) at 20° C.): 1 in 6 parts
Non-aqueous Solubility, Dioxane ([4]; (wt/vol) at 20° C.): soluble
Non-aqueous Solubility, Ether ([4]; (wt/vol) at 20° C.): 1 in 100 parts
Non-aqueous Solubility, Ethyl oleate ([4]; (wt/vol) at 20° C.): slightly soluble
Non-aqueous Solubility, Vegetable oils ([4]; (wt/vol) at 20° C.): soluble
Aqueous Solubility ([4]; at 20° C. in water): <1 mg/mL (insoluble) at 20 °C in water
